The source of these data is patent US20240400555A1 (Initial Therapeutics, Inc., priority 2023, published 2024).

By IC50 is commonly meant the concentration needed to halve the response being measured.

One assay concerns MV-4-11 cells. Description: Cell Viability Assay in MV-4-11 Cells. Format: cell-based. As to conditions: Homo sapiens, MV4-11, 72 h. Summed up: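 MV-4-11 cells at 7,000/well in IMDM with 10% FBS, exposed to compound for 72 h. Viability by CellTiter-Glo luminescence, normalized to DMSO as 100%, fitted with a four-parameter curve.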
`Cn1cc(-c2ccc(C(=O)N(c3nccc4sc(C(=O)Nc5ccncc5)cc34)[C@@H]3CCCNC3)c(F)c2)nn1` [Example 813, (R)-4-(2-fluoro-4-(1-methyl-1H-1,2,3-triazol-4-yl)-N-(piperidin-3-yl)benzamido)-N-(pyridin-4-yl)thieno[3,2-c]pyridine-2-carboxamide] had an IC50 of 550 nM.

Still in this assay, the particulars now being: Homo sapiens, MV4-11, 72 h, MV-4-11 cells, 72 h, Cell-Titer Glo; read-out: IC50.
Take `Cc1nnc(-c2ccc(C(=O)N(c3nccc4cc(F)cc(C)c34)[C@@H]3CCCNC3)nc2)s1` [Example 784, (R)—N-(6-fluoro-8-methylisoquinolin-1-yl)-5-(5-methyl-1,3,4-thiadiazol-2-yl)-N-(piperidin-3-yl)picolinamide]: the IC50 is 290 nM.
Regarding `Cc1cc(F)cc2ccnc(N(C(=O)c3ccc(-c4cn(C)nn4)cn3)[C@@H]3CCCNC3)c12` [Example 785, (R)—N-(6-fluoro-8-methylisoquinolin-1-yl)-5-(1-methyl-1H-1,2,3-triazol-4-yl)-N-(piperidin-3-yl)picolinamide], the IC50 worked out at 230 nM.
Regarding `Cc1cccc2ccnc(N(C(=O)c3ccc(Nc4nccc(NCc5ccccc5)n4)cc3F)[C@@H]3CCCNC3)c12` [Example 786, (R)-4-((4-(benzylamino)pyrimidin-2-yl)amino)-2-fluoro-N-(8-methylisoquinolin-1-yl)-N-(piperidin-3-yl) benzamide], the IC50 came to 120 nM.
On the same count and under the same terms, for `O=C(c1ccc(Nc2ncc(F)cn2)cc1F)N(c1nccc2cc(F)ccc12)[C@@H]1CCCNC1` [Example 787, (R)-2-fluoro-N-(6-fluoroisoquinolin-1-yl)-4-((5-fluoropyrimidin-2-yl)amino)-N-(piperidin-3-yl)benzamide] the value was 3000 nM; for `Cc1nnc(-c2ccc(C(=O)N(c3nccc4cc(Cl)ccc34)[C@@H]3CCCNC3)c(F)c2)o1` [Example 788, (R)—N-(6-chloroisoquinolin-1-yl)-2-fluoro-4-(5-methyl-1,3,4-oxadiazol-2-yl)-N-(piperidin-3-yl)benzamide], 970 nM; for `Cc1cccc2ccnc(N(C(=O)c3ccc(-c4nnc(C5CC5)o4)cc3)[C@@H]3CCCNC3)c12` [Example 789, (R)-4-(5-cyclopropyl-1,3,4-oxadiazol-2-yl)-N-(8-methylisoquinolin-1-yl)-N-(piperidin-3-yl)benzamide], 97 nM.
Take `Cc1cccc2ccnc(N(C(=O)c3ccc(-c4nnc(C5CC5)s4)cc3)[C@@H]3CCCNC3)c12` [Example 790, (R)-4-(5-cyclopropyl-1,3,4-thiadiazol-2-yl)-N-(8-methylisoquinolin-1-yl)-N-(piperidin-3-yl) benzamide]: the IC50 amounted to 240 nM.
On to `CCc1nnc(-c2ccc(C(=O)N(c3nccc4cccc(C)c34)[C@@H]3CCCNC3)cc2)s1` [Example 791, (R)-4-(5-ethyl-1,3,4-thiadiazol-2-yl)-N-(8-methylisoquinolin-1-yl)-N-(piperidin-3-yl) benzamide], for which the IC50 worked out at 140 nM.
As for `Cc1nnc(-c2ccc(C(=O)N(c3nccc4cccc(C)c34)[C@@H]3CCCNC3)cc2)s1` [Example 792, (R)-4-(5-methyl-1,3,4-thiadiazol-2-yl)-N-(8-methylisoquinolin-1-yl)-N-(piperidin-3-yl) benzamide], the IC50 worked out at 160 nM.
On to `Cc1cc(Cl)cc2ccnc(N(C(=O)c3ccc(Nc4ncccn4)cc3F)[C@@H]3CCCNC3)c12` [Example 793, N-(6-chloro-8-methyl-1-isoquinolyl)-2-fluoro-N-[(3R)-3-piperidyl]-4-(pyrimidin-2-ylamino)benzamide], for which the IC50 amounted to 200 nM.
Same read-out and setting: for `O=C(c1ccc(Nc2ncccn2)cc1F)N(c1nccc2cc(Cl)ccc12)[C@@H]1CCCNC1` [Example 794, (R)—N-(6-chloroisoquinolin-1-yl)-2-fluoro-N-(piperidin-3-yl)-4-(pyrimidin-2-ylamino)benzamide] the value was 1300 nM.
For `Cn1cc(-c2ccc(C(=O)N(c3nccc4scc(Cl)c34)[C@@H]3CCCNC3)c(F)c2)nn1` [Example 795, (R)—N-(3-chlorothieno[3,2-c]pyridin-4-yl)-2-fluoro-4-(1-methyl-1H-1,2,3-triazol-4-yl)-N-(piperidin-3-yl)benzamide], the IC50 amounted to 130 nM.
Take `Cc1cc(C2CCN(C(=O)N(c3nccc4scc(C)c34)[C@@H]3CCCNC3)CC2)on1` [Example 796, (R)-4-(3-methylisoxazol-5-yl)-N-(3-methylthieno[3,2-c]pyridin-4-yl)-N-(piperidin-3-yl)piperidine-1-carboxamide]: the IC50 worked out at 510 nM.
As to `Cc1cc(-c2ccc(C(=O)N(c3nccc4scc(C)c34)[C@@H]3CCCNC3)nc2)on1` [Example 797, (R)-5-(3-methylisoxazol-5-yl)-N-(3-methylthieno[3,2-c]pyridin-4-yl)-N-(piperidin-3-yl)picolinamide], the IC50 stood at 170 nM.
`Cc1nnc(-c2ccc(C(=O)N(c3nccc4scc(C)c34)[C@@H]3CCCNC3)cc2)s1` [Example 798, (R)-4-(5-methyl-1,3,4-thiadiazol-2-yl)-N-(3-methylthieno[3,2-c]pyridin-4-yl)-N-(piperidin-3-yl)benzamide]: the half-inhibitory concentration (IC50) was 82 nM.
In the case of `Cc1csc2ccnc(N(C(=O)c3ccc(-c4cn(C)nn4)cc3)[C@@H]3CCCNC3)c12` [Example 799, (R)-4-(1-methyl-1H-1,2,3-triazol-4-yl)-N-(3-methylthieno[3,2-c]pyridin-4-yl)-N-(piperidin-3-yl)benzamide], the IC50 was 79 nM.
Consider `Cn1cc(-c2ccc(C(=O)N(c3nccc4cccc(Cl)c34)[C@@H]3CCCNC3)cc2)nn1` [Example 800, (R)—N-(8-chloroisoquinolin-1-yl)-4-(1-methyl-1H-1,2,3-triazol-4-yl)-N-(piperidin-3-yl)benzamide], for which the IC50 worked out at 170 nM.
On to `Cc1nnc(-c2ccc(C(=O)N(c3nccc4cc(Cl)cc(C)c34)[C@@H]3CCCNC3)nc2)s1` [Example 801, (R)—N-(6-chloro-8-methylisoquinolin-1-yl)-5-(5-methyl-1,3,4-thiadiazol-2-yl)-N-(piperidin-3-yl)picolinamide], for which the IC50 was found to be 140 nM.
In the case of `Cc1cc(Cl)cc2ccnc(N(C(=O)c3ccc(-c4cn(C)nn4)cc3)[C@@H]3CCCNC3)c12` [Example 802, (R)—N-(6-chloro-8-methylisoquinolin-1-yl)-4-(1-methyl-1H-1,2,3-triazol-4-yl)-N-(piperidin-3-yl)benzamide], the IC50 turned out to be 38 nM.
Same read-out and setting: for `Cn1cc(-c2ccc(C(=O)N(c3nccc4cc(F)ccc34)[C@@H]3CCCNC3)nc2)nn1` [Example 803, (R)—N-(6-fluoroisoquinolin-1-yl)-5-(1-methyl-1H-1,2,3-triazol-4-yl)-N-(piperidin-3-yl)picolinamide] the value was 860 nM.
Regarding `Cc1nnc(-c2ccc(C(=O)N(c3nccc4cc(F)ccc34)[C@@H]3CCCNC3)cc2)s1` [Example 804, (R)—N-(6-fluoroisoquinolin-1-yl)-4-(5-methyl-1,3,4-thiadiazol-2-yl)-N-(piperidin-3-yl)benzamide], the IC50 was found to be 980 nM.
For the compound `Cn1cc(-c2ccc(C(=O)N(c3nccc4cc(F)ccc34)[C@@H]3CCCNC3)cc2)nn1` [Example 805, (R)—N-(6-fluoroisoquinolin-1-yl)-4-(1-methyl-1H-1,2,3-triazol-4-yl)-N-(piperidin-3-yl)benzamide], the IC50 worked out at 820 nM.
The same measure, in the same setting: next, `O=C(c1ccc(-c2cccnn2)cn1)N(c1nccc2cc(Cl)ccc12)[C@@H]1CCCNC1` [Example 806, N-(6-chloro-1-isoquinolyl)-N-[(3R)-3-piperidyl]-5-pyridazin-3-yl-pyridine-2-carboxamide]: 680 nM; `Cn1cc(-c2ccc(C(=O)N(c3nccc4cc(Cl)ccc34)[C@@H]3CCCNC3)cc2)nn1` [Example 808, (R)—N-(6-chloroisoquinolin-1-yl)-4-(1-methyl-1H-1,2,3-triazol-4-yl)-N-(piperidin-3-yl)benzamide]: 420 nM; `Cc1cccc2ccnc(N(C(=O)c3ccc(-c4cn(C)nn4)cn3)[C@@H]3CCCNC3)c12` [Example 809, (R)-5-(1-methyl-1H-1,2,3-triazol-4-yl)-N-(8-methylisoquinolin-1-yl)-N-(piperidin-3-yl)picolinamide]: 200 nM.
Still for that read-out and setting: next, `Cc1nnc(-c2ccc(C(=O)N(c3nccc4scc(C)c34)[C@@H]3CCCNC3)nc2)s1` [Example 810, (R)-5-(5-methyl-1,3,4-thiadiazol-2-yl)-N-(3-methylthieno[3,2-c]pyridin-4-yl)-N-(piperidin-3-yl)picolinamide]: 170 nM; `Cc1csc2ccnc(N(C(=O)c3ccc(-c4cn(C)nn4)cn3)[C@@H]3CCCNC3)c12` [Example 811, (R)-5-(1-methyl-1H-1,2,3-triazol-4-yl)-N-(3-methylthieno[3,2-c]pyridin-4-yl)-N-(piperidin-3-yl)picolinamide]: 120 nM; `Cc1cc(Cl)cc2ccnc(N(C(=O)c3ccc(-c4cn(C)nn4)cn3)[C@@H]3CCCNC3)c12` [Example 812, (R)—N-(6-chloro-8-methylisoquinolin-1-yl)-5-(1-methyl-1H-1,2,3-triazol-4-yl)-N-(piperidin-3-yl)picolinamide]: 51 nM.
For the compound `Cc1cc(Cl)cc2ccnc(N(C(=O)c3ccc(-c4cnn(C)c4C)cc3F)[C@@H]3CCCNC3)c12` [Example 814, (R)—N-(6-chloro-8-methylisoquinolin-1-yl)-4-(1,5-dimethyl-1H-pyrazol-4-yl)-2-fluoro-N-(piperidin-3-yl)benzamide], the IC50 stood at 430 nM.
For `Cc1nnc(-c2ccc(C(=O)N(c3nccc4cc(Cl)cc(C)c34)[C@@H]3CCCNC3)c(F)c2)s1` [Example 815, (R)—N-(6-chloro-8-methylisoquinolin-1-yl)-2-fluoro-4-(5-methyl-1,3,4-thiadiazol-2-yl)-N-(piperidin-3-yl)benzamide], the IC50 was 69 nM.
On to `Cc1cc(Cl)cc2ccnc(N(C(=O)c3ccc(-c4cn(C)nn4)cc3Cl)[C@@H]3CCCNC3)c12` [Example 816, (R)-2-chloro-N-(6-chloro-8-methylisoquinolin-1-yl)-4-(1-methyl-1H-1,2,3-triazol-4-yl)-N-(piperidin-3-yl)benzamide], for which the IC50 was 140 nM.
